# Test results from PubChem BioAssay AID2060357 (Molecular Pharmacology Branch, DTP, NCI, 2025).
# Several values for one entry are separate records, joined by “and”; a condition that tells them apart may be missing. Equal values may be shown once.
# Tested on: 292921-168-R-J2-PDC spheroids with HUVEC/MSC, viability
# Test: Anticancer human tumor 292921-168-R-J2-PDC patient-derived pancreatic carcinoma cell line growth inhibition [TAK]
# Conditions: for viability, T/C: stronger effect = lower value
# Excerpt: Combinatorial screen of targeted agents with TAK-243 and ipatasertib in multi-cell type tumor spheroids
# A high-throughput screen of multi-cell type tumor spheroids was designed to identify active combinations of targeted small molecules and TAK-243 or ipatasertib. Complex spheroids include a stromal component modeled by human endothelial cells (HUVEC) and fibroblasts modeled by human mesenchymal stem cells (MSCs). The concentration ranges selected for each drug and investigational agent were based upon clinically achievable concentrations if the clinical Cmax of the agent was known.
# Compounds. The drugs and investigational agents: TAK-243 (785004), ipatasertib (767898), everolimus (733504), selumetinib (741078), bortezomib (756655), trametinib (758246), ixazomib (758254), vemurafenib (761431), dabrafenib (764134), sapanisertib (764658), alpelisib (765974), and copanlisib (816437), were obtained from the National Cancer Institute (NCI) Developmental Therapeutics Program Chemical Repository. The FDA-approved anticancer drug set is available from the NCI Developmental Therapeutics Program. […] The stock solutions were prepared in dimethyl sulfoxide (DMSO, Sigma-Aldrich, St. Louis, MO, cat. D2650) at 800-fold the tested concentration and stored at -70 degrees C prior to their use. All drugs and investigational agents were tested over a range starting from a high concentration at or near the clinical Cmax and decreasing in half-log increments. If the clinical Cmax for an agent had not been determined, the highest concentration tested was 10 microM.
# NCI60 Cell Culture. NCI60 cell lines were obtained from the NCI Developmental Therapeutics Program Tumor Repository. For each lot of cells, the Repository performed Applied Biosystems AmpFLSTR Identifiler testing with PCR amplification to confirm consistency with the published Identifier STR profile for each cell line. Cells were kept in continuous culture for no more than 20 passages. The optimal seeding densities for each of the cell lines at each time point assessed were determined prior to performing the concentration response studies. Briefly, the NCI60 human tumor lines were grown as monolayers in RPMI 1640 medium supplemented with 10% FBS and 2 mmol/L L-glutamine.
# An additional 2 lines were from the NCI60 cell line panel including melanomas, MALME-3M and SK-MEL-2. Pooled donor human umbilical vein endothelial cells (HUVEC, Lonza, cat. CC-2519) and human mesenchymal stem cells (hMSC, Lonza, cat. PT-2501) were purchased from Lonza (Walkersville, MD).
# PDMR cell lines were grown in complete medium (DC medium): Dulbecco's modified Eagle's medium (DMEM)/F12 supplemented with 5% fetal bovine serum (FBS), 2 mM L-glutamine, 100 U/mL penicillin and 100 µg/ml streptomycin, 0.4 µg/ml hydrocortisone, 10 ng/ml epidermal growth factor (EGF) recombinant human protein, 24 µg/mL adenine, and 0.1 mg/mL primocin. During culture from frozen stock vials, PDMR cells were cultured in the same medium containing 10 µM Y-27632 (see Table 3). The PDCs were cultured in complete DMEM/F12 media without 10 microM Y-27632 dihydrochloride for at least two passages prior to the screen. The pooled donor HUVEC and hMSC were cultured in endothelial cell growth medium 2 (PromoCell, Heidelberg, Germany, cat. C-22011) and mesenchymal stem cell growth medium 2 (PromoCell, cat. C-28009), respectively. For all experiments, HUVEC and hMSC were used at passages </=5.
# For the pre-screen, cell seeding densities were determined from a titration spanning the range from 5,000 to 313 cells per well. The mct-spheroids including 60% malignant cells, 25% HUVEC and 15% MSC dispensed as a mixture into U-bottom Ultra-Low Attachment 384-well plates (Corning, NY)
# High-throughput Drug Combination Screening.
# Prior to their inoculation into 384-well plates, malignant cells, HUVEC, and hMSC were removed from T flasks using TrypLE express (Thermo Fisher Scientific, cat. 12605036) and harvested by centrifugation for 5 min at 233 x g. […]
# [1] = curve of first compound, second compound 0.3 µM
# [2] = curve of first compound, second compound 0.949 µM
# [3] = curve of first compound, second compound 3 µM
# [4] = curve of first compound, second compound 9.49 µM
# [5] = curve of first compound, second compound 30 µM
# 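Also: spheroids exposed to drugs for seven days before readout.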
compound,measurement,setting,value
Cn1cnc2c(F)c(Nc3ccc(Br)cc3Cl)c(C(=O)NOCCO)cc21 + CC(C)NCC(C(=O)N1CCN(c2ncnc3c2C(C)CC3O)CC1)c1ccc(Cl)cc1,IC50,[1],< 9.49 nM
same,IC50,[2],< 9.49 nM
same,IC50,[3],< 9.49 nM
same,IC50,[4],< 9.49 nM
same,IC50,[5],< 9.49 nM
same,"viability, T/C","second compound 0.3 µM, first compound 0.00949 µM",49.9%
same,"viability, T/C","second compound 0.3 µM, first compound 0.03 µM",36.5%
same,"viability, T/C","second compound 0.3 µM, first compound 0.0949 µM",30.9%
same,"viability, T/C","second compound 0.3 µM, first compound 0.3 µM",26.8%
same,"viability, T/C","second compound 0.3 µM, first compound 0.949 µM",21.4%
same,"viability, T/C","second compound 0.3 µM, first compound 3 µM",13.1%
same,"viability, T/C","second compound 0.949 µM, first compound 0.00949 µM",45.3%
same,"viability, T/C","second compound 0.949 µM, first compound 0.03 µM",34.7%
same,"viability, T/C","second compound 0.949 µM, first compound 0.0949 µM",30.9%
same,"viability, T/C","second compound 0.949 µM, first compound 0.3 µM",28.1%
same,"viability, T/C","second compound 0.949 µM, first compound 0.949 µM",21.5%
same,"viability, T/C","second compound 0.949 µM, first compound 3 µM",13%
same,"viability, T/C","second compound 3 µM, first compound 0.00949 µM",39.5%
same,"viability, T/C","second compound 3 µM, first compound 0.03 µM",30.3%
same,"viability, T/C","second compound 3 µM, first compound 0.0949 µM",27.6%
same,"viability, T/C","second compound 3 µM, first compound 0.3 µM",24.1%
same,"viability, T/C","second compound 3 µM, first compound 0.949 µM",17.3%
same,"viability, T/C","second compound 3 µM, first compound 3 µM",11.8%
same,"viability, T/C","second compound 9.49 µM, first compound 0.00949 µM",32.2%
same,"viability, T/C","second compound 9.49 µM, first compound 0.03 µM",24.5%
same,"viability, T/C","second compound 9.49 µM, first compound 0.0949 µM",22.6%
same,"viability, T/C","second compound 9.49 µM, first compound 0.3 µM",20.6%
same,"viability, T/C","second compound 9.49 µM, first compound 0.949 µM",15.6%
same,"viability, T/C","second compound 9.49 µM, first compound 3 µM",10.9%
same,"viability, T/C","second compound 30 µM, first compound 0.00949 µM",25.3%
same,"viability, T/C","second compound 30 µM, first compound 0.03 µM",21.2%
same,"viability, T/C","second compound 30 µM, first compound 0.0949 µM",18.4%
same,"viability, T/C","second compound 30 µM, first compound 0.3 µM",17.5%
same,"viability, T/C","second compound 30 µM, first compound 0.949 µM",13.8%
same,"viability, T/C","second compound 30 µM, first compound 3 µM",8.92%
COc1c(OCCCN2CCOCC2)ccc2c3n(c(=NC(=O)c4cnc(N)nc4)nc12)CCN3 + CC(C)NCC(C(=O)N1CCN(c2ncnc3c2C(C)CC3O)CC1)c1ccc(Cl)cc1,IC50,[1],4.15 nM
same,IC50,[2],< 3.16 nM
same,IC50,[3],< 3.16 nM
same,IC50,[4],< 3.16 nM
same,IC50,[5],< 3.16 nM
same,"viability, T/C","second compound 0.3 µM, first compound 0.00316 µM",55.2%
same,"viability, T/C","second compound 0.3 µM, first compound 0.01 µM",33.2%
same,"viability, T/C","second compound 0.3 µM, first compound 0.0316 µM",19.1%
same,"viability, T/C","second compound 0.3 µM, first compound 0.1 µM",13.5%
same,"viability, T/C","second compound 0.3 µM, first compound 0.316 µM",10.2%
same,"viability, T/C","second compound 0.3 µM, first compound 1 µM",9.21%
same,"viability, T/C","second compound 0.949 µM, first compound 0.00316 µM",43.5%
same,"viability, T/C","second compound 0.949 µM, first compound 0.01 µM",27.5%
same,"viability, T/C","second compound 0.949 µM, first compound 0.0316 µM",20%
same,"viability, T/C","second compound 0.949 µM, first compound 0.1 µM",13.1%
same,"viability, T/C","second compound 0.949 µM, first compound 0.316 µM",9.66%
same,"viability, T/C","second compound 0.949 µM, first compound 1 µM",8.79%
same,"viability, T/C","second compound 3 µM, first compound 0.00316 µM",30.2%
same,"viability, T/C","second compound 3 µM, first compound 0.01 µM",21.4%
same,"viability, T/C","second compound 3 µM, first compound 0.0316 µM",15.2%
same,"viability, T/C","second compound 3 µM, first compound 0.1 µM",12.4%
same,"viability, T/C","second compound 3 µM, first compound 0.316 µM",9.94%
same,"viability, T/C","second compound 3 µM, first compound 1 µM",8.66%
same,"viability, T/C","second compound 9.49 µM, first compound 0.00316 µM",26.4%
same,"viability, T/C","second compound 9.49 µM, first compound 0.01 µM",15.9%
same,"viability, T/C","second compound 9.49 µM, first compound 0.0316 µM",12%
same,"viability, T/C","second compound 9.49 µM, first compound 0.1 µM",9.29%
same,"viability, T/C","second compound 9.49 µM, first compound 0.316 µM",8.18%
same,"viability, T/C","second compound 9.49 µM, first compound 1 µM",7.72%
same,"viability, T/C","second compound 30 µM, first compound 0.00316 µM",19.8%
same,"viability, T/C","second compound 30 µM, first compound 0.01 µM",14.1%
same,"viability, T/C","second compound 30 µM, first compound 0.0316 µM",10.3%
same,"viability, T/C","second compound 30 µM, first compound 0.1 µM",7.72%
same,"viability, T/C","second compound 30 µM, first compound 0.316 µM",6.76%
same,"viability, T/C","second compound 30 µM, first compound 1 µM",7.15%
CC(C)(C)c1nc(-c2cccc(NS(=O)(=O)c3c(F)cccc3F)c2F)c(-c2ccnc(N)n2)s1,"viability, T/C",compound 0.0316 µM,109% and 122%
same,"viability, T/C",compound 0.1 µM,117% and 139%
same,"viability, T/C",compound 0.316 µM,111% and 110%
same,"viability, T/C",compound 1 µM,85% and 84.2%
same,"viability, T/C",compound 3.16 µM,62.5% and 67.1%
same,"viability, T/C",compound 10 µM,34% and 30.9%
same,IC50,curve of compound,4980 nM
